Holding throughout (assay type): functional
Experiment [1] deals with Pseudomonas aeruginosa. The experiment in a line: Antibacterial activity against Pseudomonas aeruginosa by broth dilution method. Background: Broth dilution looks for growth in wells or tubes with falling amounts of substance.
Experiment [2] concerns Escherichia coli. Briefly: Antibacterial activity against Escherichia coli by broth dilution method.
The next experiment deals with Bacillus spizizenii. The experiment in a line: Antibacterial activity against Bacillus subtilis ATCC 6633 after 24 hrs by broth dilution method. Conditions: ATCC 6633, 24 h.
The test system of experiment [3] is Proteus vulgaris. The experiment in a line: Antibacterial activity against Proteus vulgaris […] after 24 hrs by broth dilution method.
The test system of experiment [4] is Staphylococcus aureus. The experiment in a line: Antibacterial activity against Staphylococcus aureus ATCC 29213 after 24 hrs by broth dilution method. Conditions: ATCC 29213, 24 h.
Experiment [5] has as its system Escherichia coli. Briefly: Antibacterial activity against Escherichia coli ATCC 11229 after 24 hrs by broth dilution method. As to conditions: ATCC 11229, 24 h.
For experiment [6], the system named is Staphylococcus aureus. The experiment in a line: Antibacterial activity against Staphylococcus aureus MTCC 96 assessed as zone of inhibition at 100 ug/ml by disc diffusion method. Conditions: read-out: IZ.
For experiment [7], the system named is Escherichia coli. The experiment in a line: Antibacterial activity against Escherichia coli MTCC 443 assessed as zone of inhibition at 100 ug/ml by disc diffusion method. Conditions: read-out: IZ. (In general: Agar diffusion results depend on both activity and mobility in agar.)
Experiment [8] relates to Streptococcus pyogenes. Briefly: Antibacterial activity against Streptococcus pyogenes MTCC 442 assessed as zone of inhibition at 100 ug/ml by disc diffusion method. As to conditions: read-out: IZ.
The subject of experiment [9] is Pseudomonas aeruginosa. Briefly: Antibacterial activity against Pseudomonas aeruginosa MTCC 424 assessed as zone of inhibition at 100 ug/ml by disc diffusion method. Conditions: read-out: IZ.
Experiment [10] concerns Streptococcus pyogenes. Briefly: Antibacterial activity against Streptococcus pyogenes MTCC 442 assessed as zone of inhibition at 25 ug/ml by agar well diffusion method. As to conditions: read-out: IZ.
Experiment [11] deals with Escherichia coli. Briefly: Antibacterial activity against Escherichia coli MTCC 443 assessed as zone of inhibition at 25 ug/ml by agar well diffusion method. Conditions: read-out: IZ.
For experiment [12], the system named is Pseudomonas aeruginosa. Briefly: Antibacterial activity against Pseudomonas aeruginosa MTCC 424 assessed as zone of inhibition at 25 ug/ml by agar well diffusion method. Conditions: read-out: IZ.
The subject of experiment [13] is Proteus vulgaris. Briefly: Antibacterial activity against Proteus vulgaris after 24 hrs.
Experiment [14] concerns Staphylococcus aureus. The experiment in a line: Antibacterial activity against Staphylococcus aureus MTCC 96 assessed as zone of inhibition at 25 ug/ml by agar well diffusion method. Conditions: read-out: IZ.
For experiment [15], the system named is Mycobacterium tuberculosis. Briefly: Antimycobacterial activity against Mycobacterium tuberculosis H37Rv ATCC 27294 after 5 days by microplate alamar blue assay. As to conditions: H37Rv ATCC 27294, 120 h. A general note: Alamar Blue is a resazurin reagent that responds to reducing activity.
Experiment [16] deals with Pseudomonas aeruginosa. Briefly: Antibacterial activity against Pseudomonas aeruginosa assessed as zone of inhibition at 50 ug/ml after 3 days by filter paper disc method. As to conditions: 72 h, read-out: IZ.
In experiment [17] the test system is Escherichia coli. Briefly: Antibacterial activity against Escherichia coli assessed as zone of inhibition at 50 ug/ml after 3 days by filter paper disc method. Conditions: 72 h, read-out: IZ.

Values after ≈ are worked out from the molar mass of the structure shown.

Usually MIC stands for the lowest concentration found to suppress growth. A higher MIC goes with a less susceptible organism. For `COc1ccc2occ(-c3cc4cc(Br)ccc4oc3=O)c2c1`, the minimum inhibitory concentration (MIC) against Pseudomonas aeruginosa [1] and against Escherichia coli [2] was 6.25 to 100 µg/mL (≈ 16.8 to 269 µM) throughout.
`CCOc1ccc(-c2nn(-c3ccccc3)cc2/C=C/c2oc3c4c(ccc3c2C(=O)c2ccc(Br)cc2)OCC=C4)cc1`: the minimal inhibitory concentration (MIC) against Bacillus spizizenii, in the experiment on Proteus vulgaris [3], with Staphylococcus aureus [4] and against Escherichia coli [5] was 6.3 to 25 µg/mL (≈ 9.79 to 38.8 µM) in each case.
In the case of `O=c1oc2ccc(Br)cc2cc1-c1coc2c1ccc1ccccc12`, the MIC in the experiment on Pseudomonas aeruginosa [1] and in the experiment with Escherichia coli [2] was 6.25 to 100 µg/mL (≈ 16 to 256 µM) in each case.
As for `O=c1oc2ccccc2cc1-c1coc2c1ccc1ccccc12`, the minimal inhibitory concentration (MIC) with Pseudomonas aeruginosa [1] and against Escherichia coli [2] was 6.25 to 100 µg/mL (≈ 20 to 320 µM) in each case.
For `Cc1cc(NS(=O)(=O)c2ccc(Cl)cc2)c2oc(COC(=O)NCc3ccccc3)cc2c1`, the zone of inhibition at 100 µg/mL with Staphylococcus aureus [6], in the experiment with Escherichia coli [7], with Streptococcus pyogenes [8] and in the experiment with Pseudomonas aeruginosa [9] was 11 to 28 mm in each case.
Turning to `CCn1cc(C(=O)O)c(=O)c2cc(F)c(N3CCNCC3)cc21` [NORFLOXACIN], the zone of inhibition at 25 µg/mL in the experiment on Streptococcus pyogenes [10], in the experiment on Escherichia coli [11], in the experiment with Pseudomonas aeruginosa [12] and with Staphylococcus aureus [14] was 19 to 25 mm each time. In addition, the lowest concentration to inhibit growth against Proteus vulgaris [13] (MIC) was 62.5 µg/mL (≈ 196 µM).
As for `Cc1ccc2occ(-c3cc4cc(Br)ccc4oc3=O)c2c1`, the MIC with Pseudomonas aeruginosa [1] and in the experiment on Escherichia coli [2] was 6.25 to 100 µg/mL (≈ 17.6 to 282 µM) in each case.
As for `Cc1ccc2c(-c3cc4cc(Br)ccc4oc3=O)coc2c1`, the MIC in the experiment on Pseudomonas aeruginosa [1] and with Escherichia coli [2] was 6.25 to 100 µg/mL (≈ 17.6 to 282 µM) throughout.
In the case of `COc1ccc2occ(-c3cc4ccccc4oc3=O)c2c1`, the MIC in the experiment on Pseudomonas aeruginosa [1] and with Escherichia coli [2] was 6.25 to 100 µg/mL (≈ 21.4 to 342 µM) in each case.
Regarding `COc1cc(OC)c(-c2cc3cc(C(=O)NN)cc(OC)c3o2)c(OC)c1`, the zone of inhibition at 25 µg/mL with Streptococcus pyogenes [10], in the experiment with Escherichia coli [11], in the experiment on Pseudomonas aeruginosa [12] and in the experiment on Staphylococcus aureus [14] was 21 to 27 mm throughout.
In the case of `O=C(O)c1cn(C2CC2)c2cc(N3CCNCC3)c(F)cc2c1=O` [CIPROFLOXACIN], the zone of inhibition at 100 µg/mL with Staphylococcus aureus [6], in the experiment with Escherichia coli [7], in the experiment with Streptococcus pyogenes [8] and with Pseudomonas aeruginosa [9] was 21 to 28 mm each time. The minimal inhibitory concentration (MIC) in [15] was 3.12 µg/mL (≈ 9.43 µM); against Pseudomonas aeruginosa [1], < 4 µg/mL. Further, the zone of inhibition at 50 µg/mL with Pseudomonas aeruginosa [16] and in the experiment with Escherichia coli [17] was 25 to 28 mm throughout.
As for `Cc1ccc(S(=O)(=O)Nc2cc(C)cc3cc(COC(=O)NCc4ccccc4)oc23)cc1`, the zone of inhibition at 100 µg/mL with Staphylococcus aureus [6], in the experiment with Escherichia coli [7], with Streptococcus pyogenes [8] and with Pseudomonas aeruginosa [9] was 11 to 28 mm throughout.
On to `O=c1oc2ccc(Br)cc2cc1-c1coc2ccc3ccccc3c12`, for which the MIC against Pseudomonas aeruginosa [1] and in the experiment on Escherichia coli [2] was 6.25 to 100 µg/mL (≈ 16 to 256 µM) each time.
Consider `COc1ccc(-c2nn(-c3ccccc3)cc2/C=C/c2oc3c4c(ccc3c2C(=O)c2ccc(Br)cc2)OCC=C4)cc1`, for which the minimum inhibitory concentration (MIC) against Bacillus spizizenii, in the experiment on Proteus vulgaris [3], against Staphylococcus aureus [4] and with Escherichia coli [5] was 3.1 to 6.3 µg/mL (≈ 4.92 to 10 µM) each time.
As for `Cc1cc(NS(C)(=O)=O)c2oc(COC(=O)NCc3ccccc3)cc2c1`, the zone of inhibition at 100 µg/mL in the experiment on Staphylococcus aureus [6], in the experiment on Escherichia coli [7], in the experiment with Streptococcus pyogenes [8] and in the experiment with Pseudomonas aeruginosa [9] was 19 to 28 mm throughout.
`Cc1c(C(=O)NN)oc2ccccc12` gave a minimum inhibitory concentration (MIC) in experiment [15] of 6.25 µg/mL (≈ 32.9 µM).
`Cc1ccc2c(-c3cc4ccccc4oc3=O)coc2c1`: the MIC in the experiment with Pseudomonas aeruginosa [1] and with Escherichia coli [2] was 6.25 to 100 µg/mL (≈ 22.6 to 362 µM) each time.
`O=c1oc2ccccc2cc1-c1coc2ccc3ccccc3c12`: the minimal inhibitory concentration (MIC) with Pseudomonas aeruginosa [1] and against Escherichia coli [2] was 6.25 to 100 µg/mL (≈ 20 to 320 µM) each time.
